Holding throughout (assay type): binding
Experiment [1] addresses T1, AVPR2 (Homo sapiens, UniProt P30518).
T1 construct: purchased Promega (in-house HiBiT-GPCR construct library, NanoBRET)
Briefly: NanoBRET screen HiBiT-AVPR2 in HEK293. On the procedure:
(§1) Each tracer candidate was screened across the entire library of HiBiT-GPCR constructs using NanoBRET as the detection modality. As depicted in Figure 4A, the specificity of interactions was evaluated through decrease in BRET due to competitive displacement of a bound tracer by excess parental compound. Each tracer was analyzed for binding to each HiBiT-GPCR fusion in the absence and in the presence of competing parental compound. Briefly, HEK293 cells were transfected with HiBiT-GPCR constructs diluted into promoterless DNA to reduce expression and maximize translocation to the cell surface. Each tracer candidate was then screened at concentrations of 1 μM and 0.1 μM across cells expressing these fusions. Cells were treated for 1.5 h with tracer either alone or in the presence of 20 μM competing parental compound (i.e., control). BRET was measured upon addition of purified LgBiT and subsequent complementation with HiBiT genetically fused to a GPCR. The specificity of interactions was assessed through a decrease in BRET signal due to competitive displacement of the bound tracer. To further gauge the robustness of these interactions, the fold response over the control (i.e., BRETtracer/BRETcontrol) was calculated. We chose a 1.5-fold response, which translates to ≥7-fold signal over noise as the minimal threshold required to score an interaction as positive. […]. Below we highlight the screening results obtained for our exemplary fluorescent tracers based on Clozapine, Amitriptyline and AZD1283.
(§2) HiBiT-GPCR DNA constructs were diluted in 10 mM Tris pH 8 to a final concentration of 0.01 μg/μL, arrayed in 96-well plates and stored at −20 °C. For transfection, HEK293 cells were suspended in Opti-MEM (without phenol red) supplemented with 2% fetal bovine serum (Seradigm) and 100 units/mL penicillin–streptomycin (Gibco) at a final concentration of 220,000 cells/mL and dispensed into white 96-well plates at 90 μL/well. Subsequent transfections and screens were carried using an Agilent Bravo Automated Liquid Handling Platform. First, the 96-well HiBiT DNA arrays were diluted 25-fold in Opti-MEM (without serum or phenol red) to a final concentration of 0.0004 μg/μL and 20 μL of the diluted DNAs were transferred into new 96-well plates. Next, promoterless carrier DNA (1 μg/μL) was diluted 25-fold (0.04 μg/μL) and then dispensed into the diluted arrays at 20 μL/well. Following brief mixing, Viafect transfection reagent (Promega) diluted 16-fold into Opti-MEM was dispensed into the plates at 40 μL/well. After mixing by pipetting, plates were incubated for 10 min on the pipetting station deck. The DNA-transfection reagent complexes were then added to plates containing cells. To facilitate the screen, 10 μL of DNA-transfection reagent complexes were added in duplicates to the top 4 and bottom 4 rows, resulting in two identical 48-well arrays per plate. Plates with transfected cells were incubated for 18–20 h at 37 °C/5% CO2. A screen of each tracer across the entire library using two different concentrations requires duplicate plates of transfected cells. Depending on the number of tracers being screened, transfections can be scaled up using the same ratios. The next day, for each tracer, four 20× screening solutions in tracer dilution buffer (Promega) were prepared: two duplicates at final concentration of 20 μM and two duplicates at a final concentration of 2 μM. A competing unmodified compound was added to one of each duplicate at a final concentration of 400 μM. The four resulting solutions were diluted 4-fold in Opti-MEM without serum or phenol red to generate 5× solutions (5 µM and 0.5 µM tracer +/− 100 μM competing compound). To screen the library, a BioTek MultiFlo FX liquid dispenser was used to dispense 22.5 µL of tracer solution to the top 4 rows and 22.5 µL tracer + competing compound solution to the 4 bottom rows. Plates were briefly mixed on an orbital shaker and incubated for 1.5 h at room temperature. […]
In general terms: Bioluminescence resonance energy transfer reports proximity on the nanometre scale.

The target in experiment [2] is T2, CCR3 (Homo sapiens, UniProt P51677).
T2 construct: purchased Promega (in-house HiBiT-GPCR construct library, NanoBRET)
T2 sequence (P51677 1-355): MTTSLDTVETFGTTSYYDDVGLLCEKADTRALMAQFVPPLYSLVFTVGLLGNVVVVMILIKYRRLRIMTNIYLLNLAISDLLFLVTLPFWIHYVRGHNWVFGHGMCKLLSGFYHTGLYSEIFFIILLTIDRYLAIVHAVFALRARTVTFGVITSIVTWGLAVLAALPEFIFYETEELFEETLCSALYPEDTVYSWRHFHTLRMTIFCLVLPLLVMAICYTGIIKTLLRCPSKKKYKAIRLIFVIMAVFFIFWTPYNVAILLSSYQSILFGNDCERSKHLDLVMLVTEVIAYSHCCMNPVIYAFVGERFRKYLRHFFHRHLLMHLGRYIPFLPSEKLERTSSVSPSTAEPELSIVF
Briefly: NanoBRET screen HiBiT-CCR3 in HEK293. On the procedure: as §1, §2

For experiment [3], the target named is T3, CCR5 (Homo sapiens, UniProt P51681).
T3 construct: purchased Promega (in-house HiBiT-GPCR construct library, NanoBRET)
Briefly: NanoBRET screen HiBiT-CCR5 in HEK293. The procedure: as §1, §2

Experiment [4] concerns the target T4, HTR4 (Homo sapiens, UniProt Q13639).
T4 construct: purchased Promega (in-house HiBiT-GPCR construct library, NanoBRET)
Briefly: NanoBRET screen HiBiT-HTR4 in HEK293. The procedure: as §1, §2

Experiment [5] concerns the target T5, RXFP3 (Homo sapiens, UniProt Q9NSD7).
T5 construct: purchased Promega (in-house HiBiT-GPCR construct library, NanoBRET)
T5 sequence (Q9NSD7 1-469): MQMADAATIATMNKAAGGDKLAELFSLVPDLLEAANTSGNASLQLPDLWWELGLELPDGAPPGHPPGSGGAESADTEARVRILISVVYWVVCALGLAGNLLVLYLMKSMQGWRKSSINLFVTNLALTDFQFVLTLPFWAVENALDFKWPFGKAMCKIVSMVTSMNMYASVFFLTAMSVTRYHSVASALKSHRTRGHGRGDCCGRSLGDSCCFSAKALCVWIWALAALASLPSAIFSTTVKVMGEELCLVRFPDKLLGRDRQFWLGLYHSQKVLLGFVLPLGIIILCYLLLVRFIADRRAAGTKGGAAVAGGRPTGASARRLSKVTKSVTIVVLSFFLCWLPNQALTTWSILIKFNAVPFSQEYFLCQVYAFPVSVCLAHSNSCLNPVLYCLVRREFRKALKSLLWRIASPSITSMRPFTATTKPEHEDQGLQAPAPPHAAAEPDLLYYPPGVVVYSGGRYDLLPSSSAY
Briefly: NanoBRET screen HiBiT-RXFP3 in HEK293. On the procedure:
as §1, §2

Where [6] appears, read: tracer at 0.1μM, listed as amitriptyline-b-2-NB590.
[7] abbreviates: tracer at 1μM, listed as amitriptyline-b-2-NB590.

Each structure is given as a SMILES string.

T1 sequence (P30518 whole entry): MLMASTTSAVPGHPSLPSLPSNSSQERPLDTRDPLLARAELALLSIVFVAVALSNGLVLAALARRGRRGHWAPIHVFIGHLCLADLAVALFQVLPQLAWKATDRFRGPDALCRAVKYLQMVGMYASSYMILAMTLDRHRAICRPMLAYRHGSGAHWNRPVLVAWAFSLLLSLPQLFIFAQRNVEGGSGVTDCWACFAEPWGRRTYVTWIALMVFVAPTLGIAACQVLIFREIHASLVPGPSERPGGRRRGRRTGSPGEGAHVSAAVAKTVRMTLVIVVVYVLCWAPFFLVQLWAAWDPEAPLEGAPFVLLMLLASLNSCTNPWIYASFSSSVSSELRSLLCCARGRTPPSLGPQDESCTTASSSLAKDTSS
T4 sequence (Q13639 whole entry): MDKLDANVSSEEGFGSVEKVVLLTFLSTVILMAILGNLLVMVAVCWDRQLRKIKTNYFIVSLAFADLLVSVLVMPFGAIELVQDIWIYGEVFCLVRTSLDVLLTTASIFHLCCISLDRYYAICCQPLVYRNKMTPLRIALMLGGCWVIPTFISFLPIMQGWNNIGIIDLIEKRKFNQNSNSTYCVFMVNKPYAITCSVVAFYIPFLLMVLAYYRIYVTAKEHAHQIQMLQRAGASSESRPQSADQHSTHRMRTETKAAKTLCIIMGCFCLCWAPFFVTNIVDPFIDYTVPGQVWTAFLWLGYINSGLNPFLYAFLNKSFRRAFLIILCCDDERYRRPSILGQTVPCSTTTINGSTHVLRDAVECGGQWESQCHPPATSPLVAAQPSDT
T3 sequence (P51681 whole entry): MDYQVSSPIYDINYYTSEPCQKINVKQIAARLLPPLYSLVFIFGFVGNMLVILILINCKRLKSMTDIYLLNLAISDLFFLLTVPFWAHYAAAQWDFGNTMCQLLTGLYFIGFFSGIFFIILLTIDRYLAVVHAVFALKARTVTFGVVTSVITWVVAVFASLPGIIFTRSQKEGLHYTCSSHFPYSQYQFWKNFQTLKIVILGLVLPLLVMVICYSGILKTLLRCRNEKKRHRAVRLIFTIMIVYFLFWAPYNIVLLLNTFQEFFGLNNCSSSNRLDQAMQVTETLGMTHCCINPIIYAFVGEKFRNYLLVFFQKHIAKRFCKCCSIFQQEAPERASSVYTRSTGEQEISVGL

Consider `CC(C)N(CC[C@H](c1ccccc1)c1cc(CCNC(=O)c2ccc(CNC(=O)CCc3ccc4n3[B-](F)(F)[N+]3=C(c5ccc[nH]5)C=CC3=C4)cc2)ccc1O)C(C)C` [Tolterodine-BZ-NB590], for which the “NanoBRET Fold Response” value is listed as 0.97 in experiment [1] (AVPR2, tracer 0.1μM); 1.05 in experiment [1] (AVPR2, tracer 1μM); 0.98 in experiment [2] (CCR3, tracer 0.1μM); 0.72 in experiment [2] (CCR3, tracer 1μM); 1.09 in experiment [3] (CCR5, tracer 0.1μM); 0.97 in experiment [3] (CCR5, tracer 1μM). The “NanoBRET Fold Response” value in experiment [4] (HTR4, tracer 0.1μM) is 0.94; in experiment [4] (HTR4, tracer 1μM) it was 0.99; in experiment [5] (RXFP3, tracer 0.1μM), 1.01; in experiment [5] (RXFP3, tracer 1μM), 1.19.
For `O=C(CCc1ccc2n1[B-](F)(F)[N+]1=C(c3ccc[nH]3)C=CC1=C2)NCCOCCOCCNC(=O)OCCOCCN1CCN(C2=Nc3ccccc3Sc3ccccc32)CC1` [Quetiapine-a-2-NB590], the “NanoBRET Fold Response” value in experiment [1] (AVPR2, tracer 0.1μM) is given as 1.03; in experiment [1] (AVPR2, tracer 1μM) it was 0.93; in experiment [2] (CCR3, tracer 0.1μM) it was 1.11; in experiment [2] (CCR3, tracer 1μM), 0.98; in experiment [3] (CCR5, tracer 0.1μM) it was 0.95; in experiment [3] (CCR5, tracer 1μM), 0.85. The “NanoBRET Fold Response” value is reported as 0.98 in experiment [4] (HTR4, tracer 0.1μM); 1.00 in experiment [4] (HTR4, tracer 1μM); 0.88 in experiment [5] (RXFP3, tracer 0.1μM); 0.92 in experiment [5] (RXFP3, tracer 1μM).
In the case of `Cc1cc2c(s1)Nc1ccccc1N=C2N1CCN(CCCNC(=O)CCOCCOCCOCCOCCNC(=O)CCc2ccc3n2[B-](F)(F)[N+]2=C(c4ccc[nH]4)C=CC2=C3)CC1` [Olanzapine-a-2-NB590], the “NanoBRET Fold Response” value in experiment [1] (AVPR2, tracer 0.1μM) is given as 0.98; in experiment [1] (AVPR2, tracer 1μM), 0.92; in experiment [2] (CCR3, tracer 0.1μM), 1.19; in experiment [2] (CCR3, tracer 1μM), 1.22; in experiment [3] (CCR5, tracer 0.1μM), 1.00; in experiment [3] (CCR5, tracer 1μM), 0.89. The “NanoBRET Fold Response” value in experiment [4] (HTR4, tracer 0.1μM) stood at 1.02; in experiment [4] (HTR4, tracer 1μM), 1.02; in experiment [5] (RXFP3, tracer 0.1μM), 0.97; in experiment [5] (RXFP3, tracer 1μM), 1.11.
With `CN(C)CCC=C1c2ccccc2CCc2ccc(C(=O)NCCNC(=O)CCOCCOCCOCCOCCNC(=O)CCc3ccc4n3[B-](F)(F)[N+]3=C(c5ccc[nH]5)C=CC3=C4)cc21` [Amitriptyline-b-2-NB590], the “NanoBRET Fold Response” value in experiment [1] (setting [6]) is 1.13; in experiment [1] (setting [7]), 0.89; in experiment [2] (tracer at 0.1μM), 0.90; in experiment [2] (setting [7]), 1.27; in experiment [3] (setting [6]), 1.14; in experiment [3] (setting [7]), 1.07. Moreover, the “NanoBRET Fold Response” value in experiment [4] (tracer at 0.1μM) is 1.03; in experiment [4] (tracer at 1μM) it was 1.09; in experiment [5] (setting [6]), 0.98; in experiment [5] (setting [7]), 1.03.
With `O=C(CCOCCOCCOCCOCCNC(=O)CCc1ccc2n1[B-](F)(F)[N+]1=C(c3ccc[nH]3)C=CC1=C2)NCCCN1CCN(C2=Nc3cc(Cl)ccc3Nc3ccccc32)CC1` [Clozapine-a-2-NB590], the “NanoBRET Fold Response” value in experiment [1] (AVPR2, 0.1μM tracer) amounted to 1.03; in experiment [1] (AVPR2, 1μM tracer), 0.95; in experiment [2] (CCR3, 0.1μM tracer), 0.95; in experiment [2] (CCR3, 1μM tracer), 0.78; in experiment [3] (CCR5, 0.1μM tracer) it was 1.07; in experiment [3] (CCR5, 1μM tracer) it was 0.90. The “NanoBRET Fold Response” value was 1.02 in experiment [4] (HTR4, 0.1μM tracer); 1.12 in experiment [4] (HTR4, 1μM tracer); 1.04 in experiment [5] (RXFP3, 0.1μM tracer); 0.96 in experiment [5] (RXFP3, 1μM tracer).

(Values after PMC8151276, “An Integrated Approach toward NanoBRET Tracers for Analysis of GPCR Ligand Engagement” (Molecules, 2021).)
